Experimental data reported in patent US5270310A, “N-aminoalkyl amide inhibitors of protein kinase C” (Sphinx Pharmaceuticals Corporation, priority 1991, dated 1993).
Like-named read-outs stand apart in the source and are kept apart here.

What was measured:
protein kinase C (PKC) = test: Protein Kinase C Inhibition; format: biochemical, rat
Procedure: The protein kinase C (PKC) assay is designed to duplicate the in vivo conditions required for protein kinase C function. Therefore, pH, salt and cofactor concentrations are similar to physiologic levels. Histone H1 (lysine rich) is used in the assay as the phosphorylation acceptor protein because it is readily available and serves as a good substrate for protein kinase C. The enzyme is prepared from rat brain and is purified to apparent homogeneity as determined by a single band on silver stained SDS-polyacrylamide. Studies on the mechanism of regulation of protein kinase C by phospholipids, DAG and Ca^+2 have been hampered by the physical properties of the lipid cofactors. In the screening assay, phosphatidylserine (PS) and DAG are co-sonicated to form unilamellar and multilamellar vesicles. The concentration of lipids in the assay are suboptimal to maximize the detection potential of the assay for inhibitors. […] The assay is started with the addition of enzyme and stopped after 10 min by the addition of 25% trichloroacetic acid (TCA) and 1.0 mg/ml bovine serum albumin (BSA). The radioactive histone product is retained and washed on glass fiber filters that allow the unreacted ^32 P-ATP to pass through. The amount of phosphorylation is determined by the radioactivity measured in a scintillation counter. Controls are included in every assay to measure background activity in the absence of enzyme, activity in the absence of lipids and the maximum enzyme activity with saturating levels of the activator lipids.
Both the free base and the HCl salt were tested.

[1] = molecular target: T1, protein kinase (PKA), catalytic subunit (Homo sapiens, UniProt P17612); test: cAMP-Dependent Protein Kinase (PKA) Assay; format: biochemical; conditions: free base
T1 construct: purchased Sigma Chemical Company, St. Louis, Mo
Procedure: Compound found to be inhibitors of protein kinase C are tested for inhibitory activity against protein kinase (PKA). This enzyme, like protein kinase C, plays an important role in cell-cell communication and is activated by a second messenger, cAMP. Secondary screening against PKA is useful for ascertaining the selectivity of the compounds of the invention. The catalytic subunit of PKA (Sigma Chemical Company, St. Louis, Mo.) is mixed with buffer before addition of the inhibitor in dimethylsulfoxide (DMSO). The assay is started by the addition of 32P-ATP and the reaction is allowed to proceed for 10 min before stopping with 25% trichloroacetic acid (TCA) and 1.0 mg/ml bovine serum albumin (BSA). The phosphorylated protein is isolated by filtration and the radioactivity is counted in a beta scintillation counter.

[2] = test system: NHEK cells (proliferating keratinocytes); test: Human Keratinocyte Inhibition; format: cell-based; conditions: 3H-thymidine incorporation
Procedure: Proliferating keratinocytes (NHEK cells purchased from Clonetics, Inc., San Diego, Calif.) in second passage were grown in Keratinocyte Growth Medium (KGM) (Clonetics, Inc.) Cells are trypsinized (0.025% trypsin, Clonetics), counted with a hemacytometer (Scientific Products), and seeded at a concentration of 2,500 cells/well in a 96 well microtiter plate. After allowing cells to attach to the surface overnight, the culture medium is aspirated and replaced with 100 μl of fresh KGM. […] IC50 is the concentration of test compound required to inhibit fifty percent of the incorporation of ^3 H-thymidine into proliferating cells not exposed to test agent.

[3] = test system: PMA-stimulated neutrophils; test: Neutrophil Superoxide Anion (O2^-) Release Assay; format: cell-based, human; conditions: for IC50: Homo sapiens, Neutrophil, PMA-stimulated; for inhibit O2^- production by PMA-stimulated neutrophils: result in words
Procedure: Neutrophils are isolated form whole blood collected from human volunteers. All reagent materials are obtained from Sigma Chemical Company with the exception of isotonic saline (Travenol Laboratories, Inc., Deerfield, Ill.) and lymphocyte separation medium (Organon Teknika, Durham, N.C.).
Whole blood is drawn and mixed with sodium heparin (final conc. 10 units/ml) to prevent clotting. An equal volume of dextran (3.0%) in isotonic saline is added, mixed, and allowed to settle for 30 min to bind red blood cells (RBC). Supernatant is removed, underlayered with lymphocyte separation medium and centrifuged for 40 min at 400 xg in a centrifuge (Beckman GPR, Norcross, Ga). The pellet is alternately resuspended in 0.2% and 1.6% NaCl to lyse RBCs before washing with Hank's Balanced Salt Solution (HBSS). The washed pellet is resuspended in 10 mL HBSS and placed on ice before counting on a hemacytometer.
The neutrophil cell concentration is adjusted to 2×10^6 cells/ml with HBSS before adding 0.8 mL cells to 12×75 mm polypropylene test tubes (Fisher Scientific). Test agents are diluted to determine dose response and added at 10× final concentration at a volume of 0.1 mL/tube in duplicate. Then 10× concentrations of cytochrome C (15 mg/ml) with catalase (3000 units/ml) either alone or containing 25 ng/ml phorbol 12-myristate 13-acetate (PMA) are added at a volume of 0.1 mL/tube and incubated at 37° C. for 30 min before stopping the reaction by placing tubes on ice. Tubes are then centrifuged at 900 xg for 10 min, 0.5 mL supernatant is removed and added to 0.5 mL H2 O in a microcuvette. Optical density (OD) of cytochrome c is read in a spectrophotometer (Shimadzu) at 550 nm. The ΔOD of cytochrome c is obtained between PMA-stimulated and non-stimulated tubes, and the dose responses of the test agents are compared to the positive controls (which contain HBSS in place of test agents). PMA stimulates O2^- production which reduces cytochrome c. Reducing cytochrome c increases its absorbance, and the change in OD of cytochrome c is proportional to the amount of O2^- produced by PMA stimulation. Inhibition of the O2^- burst by test compounds of the invention is seen as a reduction in the change in optical density. Inhibition is expressed as IC50 μM and is the amount of test compound that will inhibit fifty percent of the PMA-stimulated respiratory outburst, i.e. O2^- production.

[4] = test system: MCF-7 human breast tumor cell line; test: Human Tumor Cell Growth Inhibition, MCF-7; format: cell-based; conditions: MCF7, 3H-thymidine incorporation, value in parentheses: salt
[5] = test system: MCF-7 human breast tumor cell line; test: Human Tumor Cell Growth Inhibition, MCF-7; format: cell-based; conditions: for IC50: Homo sapiens, MCF7, 3H-thymidine incorporation, value outside parentheses (not salt); for inhibit growth of MCF-7 cells: result in words
Procedure: MCF-7 a human breast tumor cell line and MCF-7/ADR an adriamycin resistant line of MCF-7 cells were obtained from the National Cancer Institute, Frederick, Md. […] Human tumor cells are trypsinized (0.05% trypsin, GIBCO), counted with a hemacytometer and seeded at a concentration of 10,000 cells/well in a 96 well microtiter plate. After allowing cells to attach to the surface overnight, the culture medium is aspirated and replaced with 100 μl of fresh medium. Test agents are diluted to determine dose response at 2× final concentration and added in quadruplicate at 100 μl/well to bring the total volume of each well to 200 μl. The microtiter plate is then incubated at 37° C. 5% CO2 overnight (18-24 hrs) before ^3 H-thymidine is added at a concentration of 0.5 μCi/well in 50 μl culture medium. The plate is incubated again for 4 hrs under the same conditions as above. Supernatant is then aspirated and 50 μl trypsin (0.05%, GIBCO) is added to each well. Cells are checked microscopically to determine detachment from surfaces, and plates are then harvested with a cell harvester (PHD, Cambridge Technology, Inc.) Filter papers corresponding to wells are placed in scintillation vials and counted to determine the amount of ^3 H-thymidine incorporated by the cells. Test agent response is compared to a positive control of cell wells with culture media only to determine the IC50. IC50 is the concentration of test compound required to inhibit fifty per cent of the incorporation of ^3 H-thymidine into proliferating cells not exposed to test agent. Uptake of ^3 H-thymidine is a standard test for measuring the metabolism of cells. Cells which are actively proliferating take up ^3 H-thymidine, whereas cells that are not proliferating take up ^3 H-thymidine at much slower rates or not at all. Test agents that inhibit the uptake of ^3 H-thymidine thus slow the growth of cells.

[6] = value in parentheses: salt, read-out: NHEK IC50 (salt)
[7] = value outside parentheses (not salt), read-out: NHEK IC50
[8] = value in parentheses: salt, read-out: Neutrophil Superoxide Release IC50 (salt)
[9] = value outside parentheses (not salt), read-out: Neutrophil Superoxide Release IC50

Row | IC50 (protein kinase C (PKC); HCl salt) [µM] | IC50 (protein kinase C (PKC); free base) [µM] | IC50 [1] [µM] | IC50 [3, 8] [µM] | IC50 [3, 9] [µM] | IC50 [4] [µM] | IC50 [5] [µM] | SMILES | IC50 [2, 6] [µM] | IC50 [2, 7] [µM] | inhibit O2^- production by PMA-stimulated neutrophils ([3]; HCl salt) | inhibit O2^- production by PMA-stimulated neutrophils ([3]; compound itself) | inhibit growth of MCF-7 cells [5]
1 | 66 | 40 |  |  |  |  |  | CCCCCCCCCCCCCCCC(=O)N(C)CCN(C)C [Compound 3] |  |  |  |  | 
2 | 57 | 107 | 90 | 2.39 | 45 | 2.9 | 1.5 | CCCCCCCCCCCCCCCC(=O)N(C)CCCN(C)C [Compound 4, N-Hexadecanoyl-N,N',N'-trimethyl-1,3-propanediamine] | 2.4 | 0.8 | inhibit O2^- production by PMA-stimulated neutrophils at micromolar concentrations | inhibit O2^- production by PMA-stimulated neutrophils at micromolar concentrations | effectively inhibit growth of MCF-7 cells at micromolar concentrations
3 | 50 | 50 | 140 | 2.8 | 2.32 | 3.5 | 4.5 | CCCCCCCCCCCCCCCC(=O)NCCCN(C)C [Compound 6, N,N-Dimethyl-N'hexadecanoyl-1,3-propanediamine] | 0.78 |  | inhibit O2^- production by PMA-stimulated neutrophils at micromolar concentrations | inhibit O2^- production by PMA-stimulated neutrophils at micromolar concentrations | effectively inhibit growth of MCF-7 cells at micromolar concentrations
4 | 38 | 50 | 119 |  |  |  |  | CCCCCCCCCCCCCCCC(=O)N(CC)CCCN(C)C [Compound 7, N,N-Dimethyl-N'-ethyl-N'-hexadecanoyl-1,3-propanediamine] |  |  |  |  | 
5 | 48 | 131 | > 218 |  | 2.9 |  | 9.7 | CCCCCCCCCCCCCCCC(=O)N(CCC)CCCN(C)C [Compound 8, N,N-Dimethyl-N'-hexadecanoyl-N'-propyl-1,3-propanediamine] |  | 1.03 |  |  | 
6 | 130 | 146 | 172 |  | 0.9 |  | 5.1 | CCCCCCCCCCCCCCCC(=O)N(CCCN(C)C)C(C)C [Compound 9, N,N-Dimethyl-N'-(2-propyl)-N'-hexadecanoyl-1,3-propanediamine] |  | 0.14 |  |  | 
7 |  | 131 | > 218 |  |  |  |  | CCCCCCCCCCCCCCCC(=O)NCCCN(CC)CC [Compound 10, N,N-Diethyl-N'-hexadecanoyl-1,3-propanediamine] |  | 1.56 |  |  | 
8 | 44 | 69 | 67 |  | 1.1 |  |  | CCCCCCCCCCCCCCCCN(CCCN(C)C)C(C)=O [Compound 20, N-Acetyl-N-hexadecyl-N',N'-dimethyl-1,3-propanediamine] |  | 1.3 |  |  | 
9 |  | 45 | < 44 |  |  |  | 15.4 | CCCCCCCCCCCCCCCC(=O)N(CCC[N+]1(C)CCOCC1)Cc1ccccc1 [Compound 22] |  | 1.6 |  |  | 
10 | 100 | 92 | > 218 |  |  |  |  | CCCCCCCCCCCCCCCC(=O)N(C)CCN(C)C [Compound 25, N,N,N'-Trimethyl-N'-hexadecanoyl-1,3-ethanediamine] |  |  |  |  | 

Row | SMILES | IC50 (protein kinase C (PKC); HCl salt) [µM] | IC50 (protein kinase C (PKC); free base) [µM] | IC50 [1] [µM] | IC50 [3, 8] [µM] | IC50 [3, 9] [µM] | IC50 [4] [µM] | IC50 [5] [µM] | IC50 [2, 6] [µM] | IC50 [2, 7] [µM] | inhibit O2^- production by PMA-stimulated neutrophils ([3]; HCl salt) | inhibit O2^- production by PMA-stimulated neutrophils ([3]; compound itself) | inhibit growth of MCF-7 cells [5]
11 | CCCCCCCCCCCCCCCC(=O)NCCC[N+](C)(C)C [Compound 15, N-Hexadecanoyl-3-trimethylammoniumpropylamine iodide] |  | 24 |  |  |  |  | 5 |  | 3.3 |  |  | 
